Assay results published in the supplement of paper PMC11208160.

assay: recombinant UMI read abundance after kanamycin selection (control-corrected) (log10(CPM+1)); higher = more efficient recombination; extreme values may be limits of the assay; sequences stand for … in AGTGCAGAGAAAATCGGCCAGTTTTCTCTGCCTGCAGTCCGCATGCCGTGGGACCCCTTGGGTTCTAACCTGTTGCCTAGATTTATGCAGCGGACTGCCTTTCTCCCAAAGTGATAAACCGG…AGGTTGGTTTCACT; site = the 11-nt donor
Outline: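 Two replicates each of selected and unselected plating were used in this pooled Escherichia coli screen of donor and donor-binding-loop pairs for the IS621 bridge recombinase. Selection was with IPTG (0.07 mM) and kanamycin. Counts of recombinant UMIs, amplified across the donor–target junction, were converted to CPM, averaged, scaled by control-derived factors and reported as log10(CPM+1).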
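Also: IS621 bridge recombinase in Escherichia coli cells against a fixed T5 target plasmid.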

Row | Sequence | recombinant UMI read abundance (log10)
1 | GATTGGACATGGACCGGTTTTCCCGGTAATCCGTATTTGAC (site CATTGGACTGT) | 0.263
2 | GCAAGCTCATGGACCGGTTTTCCCGGTAATCCGTATTTGTG (site GCAAGCTCTCA) | 2.55
3 | CCGTTAGCATGGACCGGTTTTCCCGGTAATCCGTATTTGGG (site CCGTTAGCTCT) | 0
4 | TTAGTATCATGGACCGGTTTTCCCGGTAATCCGTATTTGAC (site ATAGTATCTGT) | 2.12
5 | TAGCCGTCATGGACCGGTTTTCCCGGTAATCCGTATTTGGT (site TAGCCGTCTAC) | 0.776
6 | AATTGTGCATGGACCGGTTTTCCCGGTAATCCGTATTTGCC (site AATTGTGCTGG) | 0.735
7 | CGGTTAGCATGGACCGGTTTTCCCGGTAATCCGTATTTGTG (site CTGTTAGCTCA) | 0.256
8 | GTAGATTCATGGACCGGTTTTCCCGGTAATCCGTATTTGTT (site GTAGATTCTAA) | 3.02
9 | TAGCGAGCATGGACCGGTTTTCCCGGTAATCCGTATTTGTA (site TAGCGAGCTTA) | 1.82
10 | AGGATCTCATGGACCGGTTTTCCCGGTAATCCGTATTTGAA (site AGGATCTCTTT) | 2.92
11 | GCTTGCCCATGGACCGGTTTTCCCGGTAATCCGTATTTGAT (site GCTTGTCCTAT) | 0.00271
12 | TTCGCGGCATGGACCGGTTTTCCCGGTAATCCGTATTTGCT (site TTTGCGGCTAG) | 0.0106
13 | GATTGCCCATGGACCGGTTTTCCCGGTAATCCGTATTTGAT (site GTTTGCCCTAT) | 0.00814
14 | CTAGTCACATGGACCGGTTTTCCCGGTAATCCGTATTTGAC (site CTAGTCACTGT) | 2.59
15 | AGGTTCCCATGGACCGGTTTTCCCGGTAATCCGTATTTGTG (site AGGTTCCCTCA) | 0.152
16 | AGCCTAGCATGGACCGGTTTTCCCGGTAATCCGTATTTGTT (site GGCCTAGCTAA) | 0.0159

Row | Sequence | recombinant UMI read abundance (log10)
17 | CCCAGTCCATGGACCGGTTTTCCCGGTAATCCGTATTTGCA (site CCCAGTCCTTG) | 0
18 | CGGACTCCATGGACCGGTTTTCCCGGTAATCCGTATTTGTG (site CGGACTCCTCA) | 0.0192
19 | AGCCTAACATGGACCGGTTTTCCCGGTAATCCGTATTTGTT (site AGCCTATCTAA) | 0.00871
20 | TACGACGCATGGACCGGTTTTCCCGGTAATCCGTATTTGGG (site TACGACGCTCC) | 0.012
21 | CAATTTCCATGGACCGGTTTTCCCGGTAATCCGTATTTGCT (site CAATTCCCTAG) | 0.761
22 | GGGAATCCATGGACCGGTTTTCCCGGTAATCCGTATTTGAA (site GGTAATCCTTT) | 0.0108
23 | CGGAGGACATGGACCGGTTTTCCCGGTAATCCGTATTTGCC (site CGGAGGACTGG) | 2.76
24 | CAATTTCCATGGACCGGTTTTCCCGGTAATCCGTATTTGCT (site CAATTGCCTAG) | 0.00704
25 | AATGTAACATGGACCGGTTTTCCCGGTAATCCGTATTTGCT (site AATGTAGCTAG) | 0.332
26 | CTCTACCCATGGACCGGTTTTCCCGGTAATCCGTATTTGCT (site CTCTACGCTAG) | 0.00357
27 | AAATGATCATGGACCGGTTTTCCCGGTAATCCGTATTTGAG (site AAATGATCTCT) | 2.71
28 | GGCAATCCATGGACCGGTTTTCCCGGTAATCCGTATTTGAA (site GACAATCCTTT) | 0
29 | AGCCGTACATGGACCGGTTTTCCCGGTAATCCGTATTTGCT (site CGCCGTACTAG) | 0.697
30 | TACGGAACATGGACCGGTTTTCCCGGTAATCCGTATTTGCT (site TACGGAACTAG) | 0.249
31 | TAACTAGCATGGACCGGTTTTCCCGGTAATCCGTATTTGCG (site TAACTAGCTCG) | 0
32 | AAGTGTACATGGACCGGTTTTCCCGGTAATCCGTATTTGTG (site AAGTGTACTCA) | 0.962
